The text below walks through data of patent US11339169B2, “P2X3 and/or P2X2/3 compounds and methods” (Asana BioSciences, LLC, priority 2016, dated 2022).

One may read the IC50 as the midpoint of a concentration-inhibition curve.

For one test, the target named is T1, hP2X3 (Homo sapiens, UniProt P56373).
T1 construct: host or cells: HEK (hP2X3-HEK)
T1 sequence (P56373 1-397): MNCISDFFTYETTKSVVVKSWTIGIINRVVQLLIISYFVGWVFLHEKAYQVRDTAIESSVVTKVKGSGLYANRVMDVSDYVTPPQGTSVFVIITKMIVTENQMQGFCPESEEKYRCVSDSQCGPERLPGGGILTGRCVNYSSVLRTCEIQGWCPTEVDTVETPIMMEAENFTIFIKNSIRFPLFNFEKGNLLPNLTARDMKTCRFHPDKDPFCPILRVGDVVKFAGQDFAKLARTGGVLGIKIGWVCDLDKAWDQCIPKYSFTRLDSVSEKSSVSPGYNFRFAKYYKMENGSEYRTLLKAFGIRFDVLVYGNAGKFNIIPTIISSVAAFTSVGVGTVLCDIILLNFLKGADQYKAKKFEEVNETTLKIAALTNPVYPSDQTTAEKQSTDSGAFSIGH
As to the kind of experiment: FLIPR intracellular calcium assay, hP2X3. Format: cell-based. Particulars: human P2X3-HEK cells, agonist at EC75. An excerpt: (§1) The FLIPR® assay utilizes cells which express human or rat P2X3 or P2X2/3 receptors. Recombinant cells expressing hP2X3 (Cat #6188) and hP2X2/3 (Cat #6179) were procured from Chantest Corp. Rat P2X2 (NCBI Accession No: U14414) was amplified by PCR from PC12 cDNA (a rat adrenal medulla cell line). The PCR product obtained containing the protein coding sequence of rat P2X2 was cloned into EcoRV-digested and dephosphorylated vector plRES-puro3 within the multiple cloning site (MCS). See, FIG. 1A.
(§2) (i) Intracellular Calcium Assay Protocol for Screening Compounds
(§3) Cryo-vial containing 6×10^6 cells (human P2X3-HEK/human P2X2/3-TRex293/rat P2X2/3-TRex293/rat P2X3 TRex-CHO) was thawed in a 37° C. water bath. Cells were suspended in 20 mL of respective cell plating media (See annexure for composition) in a 50 mL centrifuge tube. The cell viability was checked with the help of Trypan Blue dye. Upon washing, cells were plated in a black 384-well clear bottomed, sterile poly-D-lysine coated plate such that, each well contained 10,000 cells (15,000/well for hP2X3) in 30 μL cell plating media. The plate was incubated in a 5% CO2 incubator at 37° C. for 24 h.
(§4) The next day, prior to the assay, the cell plating media was removed from each well by decanting and gentle tapping. Thirty μL of FLIPR Calcium 4 dye solution was added to each well. The plate was incubated at 37° C. for 45 min (60 min for hP2X3). The plate was next equilibrated at room temperature for 15 minutes before placing it in a 384 well FLIPR for the assay.
(§5) Compounds were dissolved in DMSO and serially diluted following 11 point half log (3.16 fold) dilution with a starting concentration of 2 mM. Dilutions were mixed with assay buffer just before performing the assay.
(§6) Compounds were added to the respective wells of the assay-ready cell plate with the help of the FLIPR and fluorescence readings were captured for 5 min to observe any possible agonistic property of the compounds. The plate was then incubated at room temperature for 15 min. The cells were stimulated with respective agonist EC75 concentration and the fluorescence readings were captured for another 5 min by FLIPR. The difference in fluorescence readings in presence of the compounds were compared with that of the control wells (wells having no compound) to calculate the inhibitory potency of the compounds. The IC50 values of the compounds were determined using the Graph pad Prism software.
(§7) (ii) Cell Plating Media for hP2X3-HEK and hP2X2/3-TRex293 Cells • DMEM/F12 (1:1) HAM media (Invitrogen; Cat #11039) • 1×NEAA (Invitrogen; Cat #11140) • 25 mM HEPES (Invitrogen; Cat #15630) • 1 mM sodium pyruvate (Invitrogen; Cat #11360) • 10% tetracycline negative FBS (PAA; Cat #A15-209) • 1 μg/mL doxycycline (Clontech; Cat #63131) [for hP2X2/3-TRex293 cells only]
(§8) (v) Assay Buffer Composition • HBSS (Invitrogen Cat #14025) • 20 mM HEPES (Invitrogen Cat #15630) • 0.01% F127 (Sigma Cat #P2443) • 1.8 mM CaCl2 (Sigma Cat #C5080) • pH adjusted to 7.4
(§9) (vi) Dye Solution Composition • 1× FLIPR Calcium 4 dye in assay buffer (Molecular devices Cat #R8141) • 1.8 mM Probenecid (Sigma Cat #P8761) • pH adjusted to 7.4
(Calcium assays in cells follow changes in intracellular calcium, usually with a dye or a luminescent sensor.)

A further test addresses T2, hP2X2/3 (Homo sapiens, UniProt P56373+Q9UBL9).
T2 construct: host or cells: TRex293 (hP2X2/3-TRex293), doxycycline-induced
T2 sequence (P56373 1-397): T1 sequence (P56373 1-397)
T2 sequence (Q9UBL9 1-471): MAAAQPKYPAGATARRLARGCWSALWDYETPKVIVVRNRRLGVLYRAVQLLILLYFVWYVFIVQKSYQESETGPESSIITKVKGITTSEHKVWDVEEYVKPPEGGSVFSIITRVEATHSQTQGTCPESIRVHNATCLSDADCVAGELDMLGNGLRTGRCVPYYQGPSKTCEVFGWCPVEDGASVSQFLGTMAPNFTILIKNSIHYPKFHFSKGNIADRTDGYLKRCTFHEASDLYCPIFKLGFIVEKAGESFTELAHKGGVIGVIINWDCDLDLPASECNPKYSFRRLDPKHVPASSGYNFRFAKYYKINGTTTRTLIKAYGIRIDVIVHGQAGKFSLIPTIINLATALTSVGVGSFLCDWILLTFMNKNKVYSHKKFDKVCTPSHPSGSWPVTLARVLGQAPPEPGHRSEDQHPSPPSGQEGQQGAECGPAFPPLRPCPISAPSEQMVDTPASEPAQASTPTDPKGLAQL
Kind of test: FLIPR intracellular calcium assay, hP2X2/3. Type of test: cell-based. Conditions: human P2X2/3-TRex293 cells, agonist at EC75.
Excerpt: as §1, §2, §3, §4, §5, §6, §7, §8, §9

With `CC(=O)N1CCN(c2nc(N[C@H](C)c3cnc4ccccc4c3)c3c(cnn3CC(C)C)n2)CC1` [Example 16], the IC50 fell in the range of 1 to 100 nM on hP2X3 and 1000 to 10000 nM on hP2X2/3.
As to `CCC(C)n1ncc2nc(N3CCN(C(C)=O)CC3)nc(N[C@@H](C)c3cnc4ccccc4c3)c21` (stereo partly drawn) [Example 18], the IC50 was in the range of 100 to 1000 nM on hP2X3 and 1000 to 10000 nM at hP2X2/3.
Take `CC[C@@H](C)n1ncc2nc(N3CCN(C(C)=O)CC3)nc(N[C@H](C)c3cnc4ccccc4c3)c21` [Example 21]: the IC50 on hP2X3 fell in the range of 1 to 100 nM; on hP2X2/3, 1000 to 10000 nM.
Take `CCC(CC)n1ncc2nc(N3CCN(C(C)=O)CC3)nc(N[C@H](C)c3cnc4ccccc4c3)c21` [Example 22]: the IC50 at hP2X3 and at hP2X2/3 was 1 to 100 nM in each case.
On to `CCN1CCN(c2nc(N[C@H](C)c3cnc4ccccc4c3)c3c(cnn3C(C)C)n2)CC1=O` [Example 23], for which the IC50 was in the range of 1 to 100 nM at hP2X3 and 1000 to 10000 nM on hP2X2/3.
For `COCC(C)n1ncc2nc(N3CCN(C(C)=O)CC3)nc(N[C@H](C)c3cnc4ccccc4c3)c21` (stereo partly drawn) [Example 24] the same measures were 1 to 100 nM and 1000 to 10000 nM.
Regarding `CC(=O)N1CCN(c2nc(N[C@H](C)c3cnc4ccccc4c3)c3c(cnn3C3CCCC3)n2)CC1` [Example 25], the IC50 is 1 to 100 nM at hP2X3 and 1000 to 10000 nM on hP2X2/3.
For the compound `CCC(CC)n1ncc2nc(N3CCN(C(C)=O)CC3)nc(NCC3(c4ccc(Cl)cc4)CCC3)c21` [Example 29], the results for the IC50 on hP2X3 and at hP2X2/3 were 1 to 100 nM and 1000 to 10000 nM, respectively.
The like results for `CCOc1ccc(C(C)Nc2nc(N3CCN(C(C)=O)CC3)nc3cnn(C(CC)CC)c23)cc1` (stereo not drawn) [Example 30] were, in that order, 1 to 100 nM and 1000 to 10000 nM.
Take `CCC(C)n1ncc2nc(N3CCN(C(C)=O)CC3)nc(NCC3(c4ccc(Cl)cc4)CCC3)c21` (stereo not drawn) [Example 31]: the IC50 at hP2X3 lay within 1 to 100 nM; at hP2X2/3, 1000 to 10000 nM.
In the case of `CC(=O)N1CCN(c2nc(N[C@H](C)c3cnc4ccccc4c3)c3c(cnn3CC3CCC3)n2)CC1` [Example 32], the values for the IC50 on hP2X3 and on hP2X2/3 were 1 to 100 nM and 1000 to 10000 nM, respectively.
Consider `CCOc1ccc([C@H](C)Nc2nc(N3CCN(C(C)=O)CC3)nc3cnn(C(CC)CC)c23)cc1` [Example 33], for which the concentration for half-maximal inhibition (IC50) at hP2X3 is 1 to 100 nM; on hP2X2/3, 1000 to 10000 nM.
`CC(=O)N1CCN(c2nc(N[C@H](C)c3cnc4ccccc4c3)c3c(cnn3C(C3CC3)C3CC3)n2)CC1` [Example 34]: the IC50 at hP2X3 and at hP2X2/3 was 1 to 100 nM each time.
Take `CCC(CC)n1ncc2nc(N3CCN(C(C)=O)CC3)nc(N[C@H](CC)c3cnc4ccccc4c3)c21` [Example 35]: the results for the IC50 at hP2X3 and at hP2X2/3 were 1 to 100 nM and 100 to 1000 nM, respectively.
Consider `CCC(CC)n1ncc2nc(N3CCN(C(C)=O)CC3)nc(NC(C)c3ccc4occc4c3)c21` (stereo not drawn) [Example 39], for which the IC50 at hP2X3 lay within 100 to 1000 nM; on hP2X2/3, 1000 to 10000 nM.
In the case of `CCC(CC)n1ncc2nc(N3CCN(C(C)=O)CC3)nc(N[C@H](C)c3ccc4ccccc4c3)c21` [Example 40], the figures for the IC50 at hP2X3 and at hP2X2/3 were 1 to 100 nM and 100 to 1000 nM, respectively.
On to `CCC(CC)n1ncc2nc(N3CCN(C(C)=O)CC3)nc(NC(C)c3cnc4ccc(F)cc4c3)c21` (stereo not drawn) [Example 42], for which the IC50 is 1 to 100 nM at hP2X3 and 100 to 1000 nM on hP2X2/3.
For `CCC(C)n1ncc2nc(N3CCN(C(C)=O)CC3)nc(N[C@H](CC)c3cnc4ccccc4c3)c21` (stereo partly drawn) [Example 43] the same measures were 1 to 100 nM and 1000 to 10000 nM.
For the compound `CCC(CC)n1ncc2nc(N3CCN(C(C)=O)CC3)nc(N[C@@H](c3cnc4ccccc4c3)C3CC3)c21` [Example 44], the IC50 on hP2X3 and on hP2X2/3 was 1 to 100 nM each time.
As for `CCC(C)n1ncc2nc(N3CCN(C(C)=O)CC3)nc(NC(C)c3ccc4oc(C)cc4c3)c21` (stereo not drawn) [Example 45], the IC50 was 1 to 100 nM on hP2X3 and 1000 to 10000 nM on hP2X2/3.
As for `CCC(CC)n1ncc2nc(N3CCN(C(C)=O)CC3)nc(NC(C)c3ccc4oc(C)cc4c3)c21` (stereo not drawn) [Example 46], the IC50 at hP2X3 was in the range of 1 to 100 nM; on hP2X2/3, 100 to 1000 nM.
On to `CCC(CC)n1ncc2nc(N3CCN(C(C)=O)CC3)nc(NC(C)c3ccc(OC(C)C)cc3)c21` (stereo not drawn) [Example 47], for which the IC50 at hP2X3 was 1 to 100 nM; on hP2X2/3, 1000 to 10000 nM.
Regarding `CC(=O)N1CCN(c2nc(N[C@H](C)c3cnc4ccccc4c3)c3c(cnn3C3CCC3)n2)CC1` [Example 48], the IC50 on hP2X3 was 1 to 100 nM; at hP2X2/3 it was 1000 to 10000 nM.
For the compound `C[C@@H](Nc1nc(N2CCN(C)C(=O)C2)nc2cnn(C3CCC3)c12)c1cnc2ccccc2c1` [Example 49], the IC50 lay in the range of 1 to 100 nM at hP2X3 and 1000 to 10000 nM on hP2X2/3.
For `CCC(CC)n1ncc2nc(N3CCN(C(N)=O)CC3)nc(N[C@H](C)c3cnc4ccccc4c3)c21` [Example 51], the IC50 at hP2X3 and at hP2X2/3 was 1 to 100 nM each time.
Turning to `CCC(C)n1ncc2nc(N3CCN(C(C)=O)CC3)nc(NC(C)c3ccc(-c4ccccc4)nc3)c21` (stereo not drawn) [Example 52], the IC50 on hP2X3 was in the range of 1 to 100 nM; at hP2X2/3 it was 1000 to 10000 nM.
For `CCC(CC)n1ncc2nc(N3CCN(C(C)=O)CC3)nc(NC(C)c3ccc4oc(C5CC5)cc4c3)c21` (stereo not drawn) [Example 55], the IC50 is 1 to 100 nM at hP2X3 and 100 to 1000 nM at hP2X2/3.
On to `CCC(C)n1ncc2nc(N3CCN(C(C)=O)CC3)nc(N[C@@H](c3cnc4ccccc4c3)C3CC3)c21` (stereo partly drawn) [Example 56], for which the IC50 is 1 to 100 nM at hP2X3 and 100 to 1000 nM at hP2X2/3.
With `CCC(CC)n1ncc2nc(N3CCN(C(C)=O)CC3)nc(NC(C)c3ccc4sccc4c3)c21` (stereo not drawn) [Example 57], the 50% inhibitory concentration (IC50) was 1 to 100 nM on hP2X3 and 100 to 1000 nM at hP2X2/3.
As for `CCC(C)n1ncc2nc(N3CCN(C(C)=O)CC3)nc(NC(c3ccc(-c4ccccc4)nc3)C3CC3)c21` (stereo not drawn) [Example 58], the IC50 at hP2X3 lay within 1 to 100 nM; at hP2X2/3 it was 1000 to 10000 nM.
`CC(C)n1ncc2nc(N3CCN(C)C(=O)C3)nc(N[C@@H](c3cnc4ccccc4c3)C3CC3)c21` [Example 59]: the IC50 on hP2X3 fell in the range of 1 to 100 nM; at hP2X2/3, 100 to 1000 nM.
For `CC(=O)N1CCN(c2nc(N[C@H](C)c3cnc4ccccc4c3)c3c(cnn3C(C)C(C)C)n2)CC1` (stereo partly drawn) [Example 60] the same measures were 1 to 100 nM and 100 to 1000 nM.
Turning to `CCC(CC)n1ncc2nc(N3CCN(C(C)=O)CC3)nc(N[C@H](C)c3cnc4ccc(F)cc4c3)c21` [Example 61], the IC50 fell in the range of 1 to 100 nM on hP2X3 and 100 to 1000 nM on hP2X2/3.
